Measured values: PubChem BioAssay AID248 (DTP/NCI, 2004)
Several values for one entry are separate records, joined by “and”; a condition that tells them apart may be missing. Equal entries are not always repeated. Toxic doses and inconclusive results are not listed.

Test system: L1210 leukemia ip in BDF1 mice, survival T/C
Assay: NCI In Vivo Anticancer Drug Screen. Data for tumor model L1210 Leukemia (intraperitoneal) in B6D2F1 (BDF1) mice
Conditions: endpoint: mean survival time, higher = longer survival
How it was run: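 In this screen, tumor-bearing mice given compound are compared to those given vehicle, and their survival values are reported as a treated-to-control quotient.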

[1] = dose: 100.0 mg/kg/injection, schedule: Q01DX009 (ip), vehicle: saline
[2] = dose: 200.0 mg/kg/injection, schedule: Q01DX009 (ip), vehicle: saline
[3] = dose: 100.0 mg/kg/injection, schedule: Q04DX003 (ip), vehicle: Klucel (hydroxypropylcellulose) (HPC)
[4] = dose: 200.0 mg/kg/injection, schedule: Q04DX003 (ip), vehicle: Klucel (hydroxypropylcellulose) (HPC)
[5] = dose: 400.0 mg/kg/injection, schedule: Q04DX003 (ip), vehicle: Klucel (hydroxypropylcellulose) (HPC)
[6] = dose: 100.0 mg/kg/injection, schedule: Q01DX009 (ip), vehicle: saline with Tween-80
[7] = dose: 200.0 mg/kg/injection, schedule: Q01DX009 (ip), vehicle: saline with Tween-80
[8] = dose: 300.0 mg/kg/injection, schedule: Q01DX001 (ip), vehicle: carboxymethylcellulose (CMC)
[9] = dose: 100.0 mg/kg/injection, schedule: Q01DX001 (ip), vehicle: saline
[10] = dose: 200.0 mg/kg/injection, schedule: Q01DX001 (ip), vehicle: saline
[11] = dose: 400.0 mg/kg/injection, schedule: Q01DX001 (ip), vehicle: saline
[12] = dose: 50.0 mg/kg/injection, schedule: Q01DX001 (ip), vehicle: saline
[13] = dose: 50.0 mg/kg/injection, schedule: Q01DX009 (ip), vehicle: saline
[14] = dose: 100.0 mg/kg/injection, schedule: Q04DX003 (ip), vehicle: saline
[15] = dose: 200.0 mg/kg/injection, schedule: Q04DX003 (ip), vehicle: saline
[16] = dose: 100.0 mg/kg/injection, schedule: Q01DX009 (ip), vehicle: Klucel (hydroxypropylcellulose) (HPC)
[17] = dose: 200.0 mg/kg/injection, schedule: Q01DX009 (ip), vehicle: Klucel (hydroxypropylcellulose) (HPC)
[18] = dose: 400.0 mg/kg/injection, schedule: Q01DX009 (ip), vehicle: Klucel (hydroxypropylcellulose) (HPC)
[19] = dose: 50.0 mg/kg/injection, schedule: Q01DX001 (ip), vehicle: carboxymethylcellulose (CMC)
[20] = dose: 100.0 mg/kg/injection, schedule: Q01DX001 (ip), vehicle: carboxymethylcellulose (CMC)
[21] = dose: 200.0 mg/kg/injection, schedule: Q01DX001 (ip), vehicle: carboxymethylcellulose (CMC)
[22] = dose: 400.0 mg/kg/injection, schedule: Q01DX001 (ip), vehicle: carboxymethylcellulose (CMC)
[23] = dose: 100.0 mg/kg/injection, schedule: Q01DX001 (ip), vehicle: Klucel (hydroxypropylcellulose) (HPC)
[24] = dose: 200.0 mg/kg/injection, schedule: Q01DX001 (ip), vehicle: Klucel (hydroxypropylcellulose) (HPC)
[25] = dose: 400.0 mg/kg/injection, schedule: Q01DX001 (ip), vehicle: Klucel (hydroxypropylcellulose) (HPC)

Structure (SMILES): O=C1Nc2ccccc2/C1=C/c1cccnc1
- T/C (dose: 50.0 mg/kg/injection, schedule: Q01DX Z (ip), vehicle: carboxymethylcellulose (CMC)): 97 % of control
- T/C (dose: 100.0 mg/kg/injection, schedule: Q01DX Z (ip), vehicle: carboxymethylcellulose (CMC)): 111 % of control
- T/C (dose: 200.0 mg/kg/injection, schedule: Q01DX Z (ip), vehicle: carboxymethylcellulose (CMC)): 94 % of control
- T/C (dose: 400.0 mg/kg/injection, schedule: Q01DX Z (ip), vehicle: carboxymethylcellulose (CMC)): 95 % of control

Structure (SMILES): CN(C)c1nn2c(-c3ccccc3)nnc2o1
- T/C [1]: 94 % of control
- T/C [2]: 102 % of control
- T/C (dose: 400.0 mg/kg/injection, schedule: Q01DX009 (ip), vehicle: saline): 100 % of control

Structure (SMILES): Cc1nc(N)nc2c1CCC(Nc1ccccc1)S2 (stereo unspecified)
- T/C [3]: 106 % of control
- T/C [4]: 103 % of control
- T/C [5]: 92 % of control

Structure (SMILES): Cn1nc(NN)c2cccnc21
- T/C (dose: 75.0 mg/kg/injection, schedule: Q01DX001 (ip), vehicle: other): 103 % of control
- T/C (dose: 150.0 mg/kg/injection, schedule: Q01DX001 (ip), vehicle: other): 104 % of control

Structure (SMILES): COC1=CCC2=C(C1)CC(C)O2 (stereo unspecified)
- T/C (dose: 100.0 mg/kg/injection, schedule: Q04DX003 (ip), vehicle: acetone): 93 % of control
- T/C (dose: 200.0 mg/kg/injection, schedule: Q04DX003 (ip), vehicle: acetone): 102 % of control
- T/C (dose: 400.0 mg/kg/injection, schedule: Q04DX003 (ip), vehicle: acetone): 93 % of control

Structure (SMILES): Cc1ccc(Cl)cc1NS(=O)(=O)c1ccc2ccccc2c1
- T/C [6]: 106 % of control
- T/C (dose: 100.0 mg/kg/injection, schedule: Q04DX003 (ip), vehicle: saline with Tween-80): 96 % of control
- T/C [7]: 96 % of control
- T/C (dose: 200.0 mg/kg/injection, schedule: Q04DX003 (ip), vehicle: saline with Tween-80): 104 % of control
- T/C (dose: 400.0 mg/kg/injection, schedule: Q01DX009 (ip), vehicle: saline with Tween-80): 112 % of control
- T/C (dose: 400.0 mg/kg/injection, schedule: Q04DX003 (ip), vehicle: saline with Tween-80): 91 % of control

Structure (SMILES): O=NN(CCCl)C(=O)Nc1ccc2c(c1)Cc1ccccc1-2
- T/C (dose: 10.0 mg/kg/injection, schedule: Q01DX009 (ip), vehicle: other): 156 % of control
- T/C (dose: 20.0 mg/kg/injection, schedule: Q01DX009 (ip), vehicle: other): 167 % of control
- T/C (dose: 40.0 mg/kg/injection, schedule: Q01DX009 (ip), vehicle: other): 113 % of control
- T/C (dose: 44.0 mg/kg/injection, schedule: Q01DX009 (ip), vehicle: carboxymethylcellulose (CMC)): 164 % of control
- T/C (dose: 66.0 mg/kg/injection, schedule: Q01DX009 (ip), vehicle: carboxymethylcellulose (CMC)): 208 % of control
- T/C (dose: 100.0 mg/kg/injection, schedule: Q01DX009 (ip), vehicle: carboxymethylcellulose (CMC)): 175 % of control
- T/C (dose: 150.0 mg/kg/injection, schedule: Q01DX009 (ip), vehicle: carboxymethylcellulose (CMC)): 96 % of control
- T/C [8]: 102 % of control

Structure (SMILES): O=C(O)CCC(=O)Oc1ccccc1
- T/C (dose: 100.0 mg/kg/injection, schedule: Q04DX003 (ip), vehicle: other): 92 % of control
- T/C (dose: 200.0 mg/kg/injection, schedule: Q04DX003 (ip), vehicle: other): 106 % of control

Structure (SMILES): C=CCOC(=O)Nc1ccc(S(=O)(=O)NC2CCCCC2)cc1
- T/C [9]: 92 % of control
- T/C [10]: 94 % of control
- T/C [11]: 97 % of control

Structure (SMILES): CN(C)CCC#N
- T/C [12]: 97 % of control
- T/C [13]: 106 % of control
- T/C [9]: 97 % of control
- T/C [1]: 108 % of control
- T/C [14]: 100 % of control
- T/C [10]: 100 % of control
- T/C [2]: 112 % of control
- T/C [15]: 100 % of control
- T/C [11]: 97 % of control

Structure (SMILES): Cn1c(=S)sc2ccccc21
- T/C (dose: 25.0 mg/kg/injection, schedule: Q04DX003 (ip), vehicle: saline with Tween-80): 97 % of control
- T/C (dose: 50.0 mg/kg/injection, schedule: Q04DX003 (ip), vehicle: saline with Tween-80): 97 % of control
- T/C [3]: 107 % of control

Structure (SMILES): CCCCCCCC(O)CCCCC (stereo unspecified)
- T/C [16]: 104 % of control
- T/C [3]: 93 % of control
- T/C [17]: 98 % of control
- T/C [4]: 104 % of control
- T/C [18]: 102 % of control
- T/C [5]: 89 % of control

Structure (SMILES): CC1=CC(C)=NC2NNC(=O)C12 (stereo unspecified)
- T/C (dose: 100.0 mg/kg/injection, schedule: Q04DX002 (ip), vehicle: saline with Tween-80): 100 % of control
- T/C (dose: 200.0 mg/kg/injection, schedule: Q04DX002 (ip), vehicle: saline with Tween-80): 103 % of control
- T/C (dose: 400.0 mg/kg/injection, schedule: Q04DX002 (ip), vehicle: saline with Tween-80): 96 % of control

Structure (SMILES): CCOC(=O)C1Oc2ccc(Cl)cc2C1=O (stereo unspecified)
- T/C (dose: 100.0 mg/kg/injection, schedule: Q04DX002 (ip), vehicle: gum acacia): 97 % of control
- T/C (dose: 200.0 mg/kg/injection, schedule: Q04DX002 (ip), vehicle: gum acacia): 97 % of control
- T/C (dose: 400.0 mg/kg/injection, schedule: Q04DX002 (ip), vehicle: gum acacia): 101 % of control

Structure (SMILES): CCCCNC(=O)OCC
- T/C [19]: 102 % of control
- T/C (dose: 50.0 mg/kg/injection, schedule: Q01DX009 (ip), vehicle: saline with Tween-80): 90 % of control
- T/C (dose: 88.0 mg/kg/injection, schedule: Q01DX001 (ip), vehicle: carboxymethylcellulose (CMC)): 104 % of control and 92 % of control
- T/C [20]: 98 % of control
- T/C [6]: 95 % of control
- T/C (dose: 133.0 mg/kg/injection, schedule: Q01DX001 (ip), vehicle: carboxymethylcellulose (CMC)): 93 % of control and 92 % of control
- T/C [21]: 93 % of control and 92 % of control
- T/C [7]: 93 % of control
- T/C [8]: 96 % of control and 106 % of control
- T/C [22]: 102 % of control

Structure (SMILES): O=C1/C(=C\c2ccccc2)Sc2cc[nH]c21
- T/C [23]: 96 % of control
- T/C [24]: 105 % of control
- T/C [25]: 96 % of control

Structure (SMILES): C(=Nc1ccccc1)c1ccccc1
- T/C [19]: 98 % of control
- T/C [20]: 96 % of control
- T/C [1]: 98 % of control
- T/C [14]: 104 % of control
- T/C [21]: 91 % of control
- T/C [2]: 100 % of control
- T/C [15]: 105 % of control
- T/C [22]: 91 % of control

Structure (SMILES): O=[N+]([O-])c1ccc(SCN(CSc2ccc([N+](=O)[O-])cc2)Cc2ccccc2)cc1
- T/C [9]: 96 % of control
- T/C [10]: 102 % of control
- T/C [11]: 90 % of control

Structure (SMILES): NC(=O)N(CCCCN(N=O)C(N)=O)N=O
- T/C (dose: 40.0 mg/kg/injection, schedule: Q01DX001 (ip), vehicle: saline with Tween-80): 152 % of control
- T/C (dose: 60.0 mg/kg/injection, schedule: Q01DX001 (ip), vehicle: saline with Tween-80): 178 % of control
- T/C (dose: 93.0 mg/kg/injection, schedule: Q01DX001 (ip), vehicle: saline with Tween-80): 246 % of control
- T/C (dose: 500.0 mg/kg/injection, schedule: Q01DX001 (ip), vehicle: saline with Tween-80): 90 % of control

Structure (SMILES): CS(=O)(=O)NN
- T/C (dose: 25.0 mg/kg/injection, schedule: Q01DX009 (ip), vehicle: saline): 89 % of control
- T/C [12]: 100 % of control
- T/C [13]: 94 % of control
- T/C [9]: 102 % of control and 103 % of control

Structure (SMILES): O=C1c2cc(Br)ccc2NC1(c1c[nH]c2ccccc12)c1c[nH]c2ccccc12
- T/C [12]: 102 % of control
- T/C [9]: 100 % of control
- T/C [10]: 96 % of control
- T/C [11]: 93 % of control

Structure (SMILES): O=C(NC(=O)C(Cl)Cl)Nc1ccc2c(c1)-c1ccccc1C2
- T/C [23]: 87 % of control
- T/C [16]: 96 % of control
- T/C [3]: 92 % of control
- T/C [24]: 90 % of control
- T/C [17]: 94 % of control
- T/C [4]: 92 % of control
- T/C [25]: 92 % of control
- T/C [18]: 100 % of control
- T/C [5]: 88 % of control

Structure (SMILES): CCCCN1C(=O)C2CCc3ccncc3C2C1=O (stereo unspecified)
- T/C [14]: 103 % of control
- T/C [15]: 97 % of control
- T/C (dose: 400.0 mg/kg/injection, schedule: Q04DX003 (ip), vehicle: saline): 103 % of control
